In PMC6681416, “Novel Derivatives of Deoxycholic Acid Bearing Linear Aliphatic Diamine and Aminoalcohol Moieties and their Cyclic Analogs at the C3 Position: Synthesis and Evaluation of Their In Vitro Antitumor Potential” (Molecules, 2019):
Read-outs that look alike come from different tables or passages of the source.

Tests used:
A549 cells [1] = assay: MTT cytotoxicity assay, A549; format: cell-based, human; details: ratio IC50 hFF3 / IC50 A549
Description: (§1) According to our previous data and data published by other research groups, chemical transformations of bile acids can greatly improve their antitumor potential. Thus, as the first step of evaluation of the biological activities of our novel DCA derivatives we assessed their effects on tumor cell viability. The cytotoxicity of the compounds was investigated with respect to a panel of cultured cell lines, including human duodenal HuTu-80, hepatocellular HepG2, cervical KB-3-1 and lung A549 carcinomas as well as murine macrophage RAW264.7 and non-transformed human fibroblasts hFF3 by MTT assay.
(§2) Human duodenal carcinoma HuTu-80 cells, human hepatocellular carcinoma HepG2 cells, human cervical carcinoma KB-3-1 cells, human lung carcinoma A549 cells were obtained from the Russian Cell Culture Collection (Institute of Cytology, RAS, St. Petersburg, Russia). Non-transformed human fibroblasts hFF3 were kindly provided by Dr. Olga Koval (Institute of Chemical Biology and Fundamental Medicine, SB RAS, Novosibirsk, Russia). RAW264.7 macrophages were kindly provided by Prof. Dr. Dmitry Kuprash (Engelhardt Institute of Molecular Biology, RAS, Moscow, Russia). The cells were cultured in DMEM (Sigma-Aldrich Inc., St. Louis, MO, USA) supplemented with 10% (v/v) heat-inactivated fetal bovine serum (FBS) (BioloT, St. Petersburg, Russia), 100 U/mL penicillin (ICN Biomedicals Inc., Costa Mesa, CA, USA), 100 µg/mL streptomycin and 0.25 µg/mL amphotericin; additionally, in the case of RAW264.7 cells, concentration of glucose in the medium was increased up to 4.5 mg/mL. The cells were incubated at 37 °C in 5% CO2 and 95% air (hereafter referred to as standard conditions). DCA derivatives were dissolved in DMSO to yield stock solutions of 10 mmol/L and stored at −20 °C prior to use.
(§3) Cells were seeded in triplicate in 96-well plates at a density of 5 × 10^3 (HuTu-80, HepG2, KB-3-1, hFF3), 10^4 (A549) or 5 × 10^4 (RAW264.7) cells per well. Cells were incubated under standard conditions for 24 h and then they were treated with varying doses of investigated derivatives for subsequent 24 h. Then 10 µL of MTT solution (5 mg/mL) were added to each wells and cells were incubated for an additional 2 h under standard conditions. The crystals of formazan forming within live cells were solubilized with DMSO and the absorbance was measured in a Multiscan RC plate reader (Thermo LabSystems, Helsinki, Finland) at a test and reference wavelengths of 570 nm and 620 nm, respectively. […] To perform SAR analysis, hierarchical clustering of compounds based on their IC50 values was fulfilled with Euclidean distance by using the Morpheus tool (https://software.broadinstitute.org/morpheus/), a platform designed for visualization and analysis of data in a matrix format. Heatmap, containing compounds’ SI values, were constructed by using the Excel 2010 software (Microsoft, Redmond, WA, USA). In order to reveal whether ROS participate in the induction of cell death by compound 9, HuTu-80 cells cultured in 96-well plate were pretreated by NAC at 2 mM for 1 h. Thereafter, the medium was replaced by fresh medium with compound 9 at 8 µM and the cells were incubated with subsequent 24 h under standard conditions. After this time period, the curves of cytotoxicity of compound 9 in the presence or absence of NAC were compared.

RAW264.7 macrophages = assay: MTT cytotoxicity assay, RAW264.7; format: cell-based, murine; details: for IC50: Mus musculus, RAW264.7, MTT, 24 h, read-out: IC50 RAW264.7 (macrophage); for Selectivity index RAW264: ratio IC50 hFF3 / IC50 RAW264.7
Description: as §1, §2, §3

[2] = test system: NO synthesis by IFNγ-activated RAW264.7 cells; assay: Inhibition of NO production by stimulated macrophages (Griess); format: cell-based, murine; details: Mus musculus, read-out: IC50NO
Protocol: RAW264.7 cells were seeded in triplicate in 96-well plates at a density of 5 × 10^4 cells/well and incubated under standard conditions for 24 h. The cells were treated with 20 ng/mL of murine recombinant IFNγ (GIBCO, Gaithersburg, MD, USA), with or without (control) compounds at various concentrations for 24 h. The level of NO production was evaluated by determining the nitrite concentration in culture medium with a Griess Reagent System (Promega, Madison, WI, USA). The IC50^NO value was calculated as the derivative concentration required to decrease NO production to 50% of the non-treated control.

HuTu-80 cells [3] = test system: HuTu-80 cells; parameters: method as in PMID 28688958, PMID 26037611, PMID 28887170; details: MTT, 24 h; values marked by asterisk; ref [21],[22],[23]; read-out: IC50 HuTu-80 (duodenum); cited from earlier work
HepG2 cells [4] = test system: HepG2 cells; parameters: method as in PMID 28688958, PMID 26037611, PMID 28887170; details: MTT, 24 h; values marked by asterisk; ref [21],[22],[23]; read-out: IC50 HepG2 (liver); cited from earlier work
KB-3-1 cells [5] = test system: KB-3-1 cells; parameters: method as in PMID 28688958, PMID 26037611, PMID 28887170; details: MTT, 24 h; values marked by asterisk; ref [21],[22],[23]; read-out: IC50 KB3-1 (cervix); cited from earlier work
[6] = test system: non-transformed human fibroblasts hFF3; parameters: method as in PMID 28688958, PMID 26037611, PMID 28887170; details: MTT, 24 h; values marked by asterisk; ref [21],[22],[23]; read-out: IC50 hFF3 (fibroblast); cited from earlier work
[7] = test system: panel of cultured cell lines (HuTu-80, HepG2, KB-3-1, A549, RAW264.7, hFF3); parameters: method as in PMID 28688958, PMID 26037611, PMID 28887170; details: MTT, 24 h; summary of Table 1 values marked by asterisk; ref [21],[22],[23]; read-out: IC50, range or lowest value over tested cell lines; cited from earlier work
HuTu-80 cells [8] = assay: cells; format: cell-based; details: ratio IC50 hFF3 / IC50 HuTu-80
Description: as §1, §2, §3

HepG2 cells [9] = assay: MTT cytotoxicity assay, HepG2; format: cell-based, human; details: ratio IC50 hFF3 / IC50 HepG2
Description: as §1, §2, §3

KB-3-1 cells [10] = assay: MTT cytotoxicity assay, KB-3-1; format: cell-based, human; details: ratio IC50 hFF3 / IC50 KB-3-1
Description: as §1, §2, §3

A549 cells [11] = test system: A549 cells; parameters: method as in PMID 28688958, PMID 26037611, PMID 28887170; details: MTT, 24 h; values marked by asterisk; ref [21],[22],[23]; read-out: IC50 A549 (lung); cited from earlier work

SMILES | Selectivity index A549 (A549 cells [1]) | IC50 (RAW264.7 macrophages) | IC50 ([2]; 50% reduction in NO synthesis by IFNγ-activated RAW264.7 cells, 24 h) | IC50 (HuTu-80 cells [3]) | IC50 (HepG2 cells [4]) | IC50 (KB-3-1 cells [5]) | IC50 [6] | IC50 [7] | Selectivity index HuTu-80 (HuTu-80 cells [8]) | Selectivity index HepG-2 (HepG2 cells [9]) | Selectivity index KB-3-1 (KB-3-1 cells [10]) | Selectivity index RAW264 (RAW264.7 macrophages) | IC50 ([2]; RAW264.7, 24 h) | IC50 (A549 cells [11])
C[C@H](CCC(=O)O)[C@H]1CC[C@H]2[C@@H]3CC[C@@H]4C[C@H](O)CC[C@]4(C)[C@H]3C[C@H](O)[C@]12C [DCA, deoxycholic acid] | 1 | > 100 µM | 83.6 ± 1.6 µM | 82.9 ± 1.9 µM | > 100 µM | > 100 µM | > 100 µM | ≥ 82.9 µM | – | – | – | – | – | –
COC(=O)CC[C@@H](C)[C@H]1CCC2[C@@H]3CC[C@@H]4C[C@](O)(CN5CCN(C)CC5)CC[C@]4(C)C3CC(=O)[C@@]21C (some centres unmarked) [Compound 4] | 1.5 | 20.4 ± 0.4 µM | – | 4.7 ± 0.2 µM | 3.6 ± 0.7 µM | 23.5 ± 1.7 µM | 32.5 ± 1.4 µM | – | 6.9 | 9 | 1.4 | 1.6 | > 10 µM | 21.6 ± 2.5 µM
CCN(CC)CCNC[C@]1(O)CC[C@]2(C)C3CC(=O)[C@@]4(C)C(CC[C@@H]4[C@H](C)CCC(=O)OC)[C@@H]3CC[C@@H]2C1 (some centres unmarked) [Compound 5] | 0.3 | 20.9 ± 2.1 µM | – | 3.3 ± 0.1 µM | 4.3 ± 0.3 µM | 21.6 ± 3.4 µM | 7.4 ± 1 µM | 3.3 to 25.5 µM | 2.2 | 1.7 | 0.3 | 0.4 | > 10 µM | 25.5 ± 0.8 µM
COC(=O)CC[C@@H](C)[C@H]1CCC2[C@@H]3CC[C@@H]4C[C@](O)(CNCCN(C)C)CC[C@]4(C)C3CC(=O)[C@@]21C (some centres unmarked) [Compound 2] | 0.7 | 21.7 ± 0.87 µM | – | 7.1 ± 0.6 µM | 8 ± 0.9 µM | 26.2 ± 0.8 µM | 25.4 ± 2.2 µM | 7.1 to 36 µM | 3.6 | 3.2 | 1 | 1.2 | > 10 µM | 36 ± 0.7 µM
COC(=O)CC[C@@H](C)[C@H]1CC[C@H]2[C@@H]3CC[C@@H]4C[C@H](O)CC[C@]4(C)[C@H]3CC(=O)[C@]12C [Compound 11, methyl 3α-hydroxy-12-oxo-5β-cholan-24-oate] | 1 | > 100 µM | – | > 100 µM | 25.7 ± 3.6 µM | > 100 µM | > 100 µM | ≥ 25.7 µM | – | >3.9 | – | – | 50.9 ± 5.9 µM | –
COC(=O)CC[C@@H](C)[C@H]1CCC2[C@@H]3CC[C@@H]4C[C@](O)(CNCCCN(C)C)CC[C@]4(C)C3CC(=O)[C@@]21C (some centres unmarked) [Compound 3] | 1 | 6.7 ± 0.4 µM | – | 3 ± 0.4 µM | 4 ± 0.2 µM | 5.9 ± 0.5 µM | 6.5 ± 0.5 µM | 3 to 6.8 µM | 2.2 | 1.6 | 1.1 | 1 | > 10 µM | 6.8 ± 0.1 µM
CCN1CCN(C[C@]2(O)CC[C@]3(C)C4CC(=O)[C@@]5(C)C(CC[C@@H]5[C@H](C)CCC(=O)OC)[C@@H]4CC[C@@H]3C2)CC1 (some centres unmarked) [Compound 7] | 0.7 | 37.8 ± 1.7 µM | – | 8.3 ± 1.2 µM | 3.8 ± 0.3 µM | 28.6 ± 0.5 µM | 17.4 ± 1.6 µM | – | 2 | 4.6 | 0.6 | 0.5 | > 10 µM | 23.5 ± 3 µM
COC(=O)CC[C@@H](C)[C@H]1CCC2[C@@H]3CC[C@@H]4C[C@@]5(CC[C@]4(C)C3CC(=O)[C@@]21C)CO5 (stereo partly drawn) [Compound 1, methyl 3β-oxirane-12-oxo-5β-cholan-24-oate] | – | > 100 µM | – | 17 ± 1.6 µM | 43.5 ± 1.9 µM | 27.9 ± 2.5 µM | 53.9 ± 3.3 µM | ≥ 17 µM | 1.6 | – | – | <0.5 | 16.4 ± 0.9 µM | –
